From patent publication US6914045B2, “Glycopeptide antibiotics” (Wyeth Holdings Corporation, priority 2001, dated 2005)
Values after ≈ are worked out from the molar mass of the structure shown.

Legend:
Assay in all cases: in vitro antibacterial evaluation, MIC by broth dilution
Assay type in all cases: cell-based
[1] = test system: Streptococcus sp.; conditions: broth dilution, 18 hours at 35° C.
Method in brief: (§1)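 Broth dilution per NCCLS standard M7-A2 in Muller-Hinton II […], with an inoculum of 5×10^5 CFU/mL and antibiotic spanning 64-0.06 μg/mL. The MIC is the lowest concentration that inhibits growth of the organism.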

[2] = test system: Escherichia coli; conditions: 18 hours at 35° C.
Method in brief: as §1

[3] = test system: Enterococcus sp.; conditions: broth dilution, 18 hours at 35° C.
Method in brief: as §1

[4] = test system: Staphylococcus sp.; conditions: broth dilution, 18 hours at 35° C.
Method in brief: as §1

CC(c1ccccc1)C1NC(=O)CNC(=O)C(CO)NC(=O)C(C(O)C2CNC(=N)N2C2OC(CO)C(O)C(O)C2O)NC(=O)C(C(O)C2CNC(=N)N2)NC(=O)C(Cc2ccc(OC3OC(CO)C(OC4OC5COC(CC67CC8CC(CC(C8)C6)C7)OC5C(O)C4O)C(O)C3O)cc2)NC1=O (stereo not shown) [Example 129]
MIC Streptococcus agalactiae (GC 4564) ([1]; Streptococcus agalactiae (GC 4564)): <0.06 mg/L | MIC Streptococcus pneumoniae (ATCC 6301) ([1]; Streptococcus pneumoniae (ATCC 6301)): <0.06 mg/L | MIC Streptococcus pneumoniae (GC 1894) ([1]; Streptococcus pneumoniae (GC 1894)): <0.06 mg/L | MIC Streptococcus pneumoniae (GC 4565) ([1]; Streptococcus pneumoniae (GC 4565)): <0.06 mg/L | MIC Streptococcus pyogenes (GC 4563) ([1]; Streptococcus pyogenes (GC 4563)): <0.06 mg/L | MIC Streptococcus pneumoniae (ATCC 6301) ([1]; strain ATCC 6301): <0.06 mg/L | MIC Streptococcus pneumoniae (GC 1894) ([1]; strain GC 1894): <0.06 mg/L | MIC Streptococcus pyogenes (GC 4563) ([1]; strain GC 4563): <0.06 mg/L | MIC Streptococcus agalactiae (GC 4564) ([1]; strain GC 4564): <0.06 mg/L | MIC Streptococcus pneumoniae (GC 4565) ([1]; strain GC 4565): <0.06 mg/L | MIC Escherichia coli (ATCC 25922) ([2]; strain ATCC 25922): 32 mg/L (≈ 22 µM) | MIC Escherichia coli (GC 4559) ([2]; strain GC 4559): 32 mg/L (≈ 22 µM) | MIC Escherichia coli (GC 4560) ([2]; strain GC 4560): 2 mg/L (≈ 1.37 µM) | MIC Enterococcus avium (GC 4558) ([3]; Enterococcus avium (GC 4558)): 2 mg/L (≈ 1.37 µM) | MIC Enterococcus faecalis (ATCC 29212) ([3]; Enterococcus faecalis (ATCC 29212)): 2 mg/L (≈ 1.37 µM) | MIC Enterococcus faecalis (GC 2242) ([3]; Enterococcus faecalis (GC 2242)): 2 mg/L (≈ 1.37 µM) | MIC Enterococcus faecalis (GC 2691) ([3]; Enterococcus faecalis (GC 2691)): 2 mg/L (≈ 1.37 µM) | MIC Enterococcus faecalis (GC 3059) ([3]; Enterococcus faecalis (GC 3059)): 2 mg/L (≈ 1.37 µM) | MIC Enterococcus faecalis (GC 4552) ([3]; Enterococcus faecalis (GC 4552)): 2 mg/L (≈ 1.37 µM) | MIC Enterococcus faecalis (GC 4553) ([3]; Enterococcus faecalis (GC 4553)): 2 mg/L (≈ 1.37 µM) | MIC Enterococcus faecalis (GC 4554) ([3]; Enterococcus faecalis (GC 4554)): 2 mg/L (≈ 1.37 µM) | MIC Enterococcus faecalis (GC 6189) ([3]; Enterococcus faecalis (GC 6189)): 2 mg/L (≈ 1.37 µM) | MIC Enterococcus faecium (GC 2243) ([3]; Enterococcus faecium (GC 2243)): 2 mg/L (≈ 1.37 µM) | MIC Enterococcus faecium (GC 4556) ([3]; Enterococcus faecium (GC 4556)): 2 mg/L (≈ 1.37 µM) | MIC Enterococcus faecium (GC 4557) ([3]; Enterococcus faecium (GC 4557)): 2 mg/L (≈ 1.37 µM) | MIC Enterococcus faecalis (ATCC 29212) ([3]; strain ATCC 29212): 2 mg/L (≈ 1.37 µM) | MIC Enterococcus faecalis (GC 2242) ([3]; strain GC 2242): 2 mg/L (≈ 1.37 µM) | MIC Enterococcus faecium (GC 2243) ([3]; strain GC 2243): 2 mg/L (≈ 1.37 µM) | MIC Enterococcus faecalis (GC 2691) ([3]; strain GC 2691): 2 mg/L (≈ 1.37 µM) | MIC Enterococcus faecalis (GC 3059) ([3]; strain GC 3059): 2 mg/L (≈ 1.37 µM) | MIC Enterococcus faecalis (GC 4552) ([3]; strain GC 4552): 2 mg/L (≈ 1.37 µM) | MIC Enterococcus faecalis (GC 4553) ([3]; strain GC 4553): 2 mg/L (≈ 1.37 µM) | MIC Enterococcus faecalis (GC 4554) ([3]; strain GC 4554): 2 mg/L (≈ 1.37 µM) | MIC Enterococcus faecium (GC 4556) ([3]; strain GC 4556): 2 mg/L (≈ 1.37 µM) | MIC Enterococcus faecium (GC 4557) ([3]; strain GC 4557): 2 mg/L (≈ 1.37 µM) | MIC Enterococcus avium (GC 4558) ([3]; strain GC 4558): 2 mg/L (≈ 1.37 µM) | MIC Enterococcus faecalis (GC 6189) ([3]; strain GC 6189): 2 mg/L (≈ 1.37 µM) | MIC Staphylococcus aureus (ATCC 29213) [4]: 4 mg/L (≈ 2.75 µM) | MIC Staphylococcus aureus (GC 1131) [4]: 2 mg/L (≈ 1.37 µM) | MIC Staphylococcus aureus (GC 3051) [4]: 2 mg/L (≈ 1.37 µM) | MIC Staphylococcus aureus (GC 3053) [4]: 2 mg/L (≈ 1.37 µM) | MIC Staphylococcus aureus (GC 4541) [4]: 2 mg/L (≈ 1.37 µM) | MIC Staphylococcus aureus (GC 4542) [4]: 2 mg/L (≈ 1.37 µM) | MIC Staphylococcus aureus (GC 4544) [4]: 2 mg/L (≈ 1.37 µM) | MIC Staphylococcus aureus (GC 4545) [4]: 2 mg/L (≈ 1.37 µM) | MIC Staphylococcus aureus (GC 1131) ([4]; inoculum 5×10^5 CFU/mL, strain GC 1131): 2 mg/L (≈ 1.37 µM) | MIC Staphylococcus aureus (ATCC 29213) ([4]; strain ATCC 29213): 4 mg/L (≈ 2.75 µM) | MIC Staphylococcus aureus (GC 3051) ([4]; strain GC 3051): 2 mg/L (≈ 1.37 µM) | MIC Staphylococcus aureus (GC 3053) ([4]; strain GC 3053): 2 mg/L (≈ 1.37 µM) | MIC Staphylococcus aureus (GC 4541) ([4]; strain GC 4541): 2 mg/L (≈ 1.37 µM) | MIC Staphylococcus aureus (GC 4542) ([4]; strain GC 4542): 2 mg/L (≈ 1.37 µM) | MIC Staphylococcus aureus-SMITH (GC 4543) ([4]; strain GC 4543): 2 mg/L (≈ 1.37 µM) | MIC Staphylococcus aureus (GC 4544) ([4]; strain GC 4544): 2 mg/L (≈ 1.37 µM) | MIC Staphylococcus aureus (GC 4545) ([4]; strain GC 4545): 2 mg/L (≈ 1.37 µM) | MIC Staphylococcus haemolyticus (GC 4546) ([4]; strain GC 4546): 2 mg/L (≈ 1.37 µM) | MIC Coagulase Negative Staphylococcus (GC 4547) ([4]; strain GC 4547): 2 mg/L (≈ 1.37 µM) | MIC Coagulase Negative Staphylococcus (GC 4548) ([4]; strain GC 4548): 1 mg/L (≈ 0.687 µM) | MIC Coagulase Negative Staphylococcus (GC 4549) ([4]; strain GC 4549): 1 mg/L (≈ 0.687 µM) | MIC Coagulase Negative Staphylococcus (GC 4551) ([4]; strain GC 4551): 4 mg/L (≈ 2.75 µM) | MIC Coagulase Negative Staphylococcus (GC 6257) ([4]; strain GC 6257): 1 mg/L (≈ 0.687 µM) | MIC Staphylococcus aureus-SMITH (GC 4543) ([4]; strain SMITH GC 4543): 2 mg/L (≈ 1.37 µM)
